Measurements from the CheMixHub viscosity set.

Experiment: xn = mol fraction of the nth substance listed

Clc1cccc2ccccc12 + CCCCCCO
viscosity [mPa·s], 101.33 kPa
Conditions | x1 = 0.1047 | x1 = 0.2004 | x1 = 0.3023 | x1 = 0.3992 | x1 = 0.5019 | x1 = 0.6012 | x1 = 0.6993 | x1 = 0.8002 | x1 = 0.9013
298.15 K | 3.951 | 3.68 | 3.366 | 3.133 | 2.903 | 2.781 | 2.706 | 2.638 | 2.647
303.15 K | 3.335 | 3.105 | 2.858 | 2.67 | 2.506 | 2.455 | 2.44 | 2.304 | 2.337
308.15 K | 2.608 | 2.423 | 2.248 | 2.084 | 1.971 | 1.951 | 1.942 | 1.969 | 2.066

COC(C)(C)C + CCCCCO
Conditions | viscosity [mPa·s]
298.15 K, 101.33 kPa, x1 = 0.0301 | 3.179
298.15 K, 101.33 kPa, x1 = 0.0484 | 3.008
298.15 K, 101.33 kPa, x1 = 0.1133 | 2.461
298.15 K, 101.33 kPa, x1 = 0.1663 | 2.091
298.15 K, 101.33 kPa, x1 = 0.2824 | 1.56
298.15 K, 101.33 kPa, x1 = 0.3286 | 1.346
298.15 K, 101.33 kPa, x1 = 0.3767 | 1.174
298.15 K, 101.33 kPa, x1 = 0.4229 | 1.052
298.15 K, 101.33 kPa, x1 = 0.4688 | 0.939
298.15 K, 101.33 kPa, x1 = 0.5137 | 0.843
298.15 K, 101.33 kPa, x1 = 0.5239 | 0.843
298.15 K, 101.33 kPa, x1 = 0.5817 | 0.725
298.15 K, 101.33 kPa, x1 = 0.6305 | 0.653
298.15 K, 101.33 kPa, x1 = 0.6824 | 0.587
298.15 K, 101.33 kPa, x1 = 0.7282 | 0.538
298.15 K, 101.33 kPa, x1 = 0.7788 | 0.487
298.15 K, 101.33 kPa, x1 = 0.8339 | 0.44
298.15 K, 101.33 kPa, x1 = 0.8897 | 0.398
298.15 K, 101.33 kPa, x2 = 0.0178 | 0.349
303.15 K, 101 kPa, x1 = 0.0401 | 2.675

Clc1cccc2ccccc12 + CCCCCO
viscosity [mPa·s], 101.33 kPa
Conditions | x1 = 0.1019 | x1 = 0.1914 | x1 = 0.3014 | x1 = 0.371 | x1 = 0.4944 | x1 = 0.6006 | x1 = 0.6961 | x1 = 0.7909 | x1 = 0.9013
298.15 K | 3.204 | 3.078 | 2.928 | 2.833 | 2.708 | 2.669 | 2.659 | 2.702 | 2.761
303.15 K | 2.83 | 2.704 | 2.555 | 2.473 | 2.388 | 2.364 | 2.358 | 2.393 | 2.464
308.15 K | 2.469 | 2.37 | 2.232 | 2.179 | 2.115 | 2.107 | 2.107 | 2.134 | 2.217

Clc1ccccc1 + CCCCCO
293.15 K, 101.33 kPa
Conditions | viscosity [mPa·s]
x2 = 0.0511 | 0.816
x2 = 0.1017 | 0.852
x2 = 0.1449 | 0.892
x2 = 0.198 | 0.936
x2 = 0.2665 | 1.017
x2 = 0.3688 | 1.195
x2 = 0.4687 | 1.387
x2 = 0.5602 | 1.637
x2 = 0.5789 | 1.697
x2 = 0.7339 | 2.339
x2 = 0.8618 | 3.062
x2 = 0.9524 | 3.666

CCc1ccccc1 + CCCCO
298.15 K, 101.33 kPa
Conditions | viscosity [mPa·s]
x2 = 0.1608 | 0.666
x2 = 0.2901 | 0.735
x2 = 0.4235 | 0.849
x2 = 0.5335 | 0.999
x2 = 0.6392 | 1.183
x2 = 0.7407 | 1.435
x2 = 0.8339 | 1.756
x2 = 0.9191 | 2.126

COC(C)(C)C + CCCCO
viscosity [mPa·s], 101 kPa
Conditions | x1 = 0.1006 | x1 = 0.102 | x1 = 0.2 | x1 = 0.2998 | x1 = 0.3995 | x1 = 0.5111 | x1 = 0.6008 | x1 = 0.6996 | x1 = 0.7994 | x1 = 0.9005
298.15 K | – | 1.94 | 1.48 | 1.14 | 0.902 | 0.719 | 0.613 | 0.529 | 0.46 | 0.401
303.15 K | 1.695 | – | – | – | – | – | – | – | – | –

COCCOCCOCCOCCOC + CCCCO
viscosity [mPa·s], 101 kPa
Conditions | 298.15 K | 303.15 K | 308.15 K
x2 = 0.1013 | – | – | 2.525
x2 = 0.7991 | 2.165 | 1.945 | –
